US8338597B2, “Pyridones useful as inhibitors of kinases” (Vertex Pharmaceuticals Incorporated, priority 2004, dated 2012)

How the values were obtained:
Format in all cases: biochemical
[1] = biological target: T1, Itk (Homo sapiens, UniProt Q08881); test: ITK inhibition assay, radioactive-phosphate incorporation; settings: [γ-33P]ATP, SAM68 peptide, 25° C.
T1 sequence (Q08881 1-620): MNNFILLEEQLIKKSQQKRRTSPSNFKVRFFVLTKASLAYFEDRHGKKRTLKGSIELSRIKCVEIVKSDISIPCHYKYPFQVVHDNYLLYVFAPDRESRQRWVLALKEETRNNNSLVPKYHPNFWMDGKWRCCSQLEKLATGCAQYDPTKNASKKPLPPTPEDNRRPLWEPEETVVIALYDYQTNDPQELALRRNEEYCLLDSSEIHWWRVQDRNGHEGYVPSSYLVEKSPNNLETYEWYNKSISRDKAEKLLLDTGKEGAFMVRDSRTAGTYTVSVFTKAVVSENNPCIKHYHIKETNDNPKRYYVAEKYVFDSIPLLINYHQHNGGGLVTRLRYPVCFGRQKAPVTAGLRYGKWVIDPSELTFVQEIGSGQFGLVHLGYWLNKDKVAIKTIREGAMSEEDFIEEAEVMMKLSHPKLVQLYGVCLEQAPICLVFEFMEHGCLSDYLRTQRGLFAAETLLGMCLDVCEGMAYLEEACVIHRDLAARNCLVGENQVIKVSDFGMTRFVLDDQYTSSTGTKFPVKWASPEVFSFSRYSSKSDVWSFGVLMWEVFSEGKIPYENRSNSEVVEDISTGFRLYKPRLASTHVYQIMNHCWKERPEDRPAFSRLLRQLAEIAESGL
Procedure: Assays were carried out in a mixture of 20 mM MOPS (pH 7.0), 10 mM MgCl2, 0.1% BSA and 1 mM DTT. […] Assays were carried out at 25° C. in the presence of 50 nM Itk. An assay stock buffer solution was prepared containing all of the reagents listed above, with the exception of ATP and the test compound of interest.
The reaction was stopped after 10 minutes by the addition of […] 0.2M phosphoric acid+0.01% TWEEN 20. A multiscreen phosphocellulose filter 96-well plate (Millipore, Cat no. MAPHN0B50) was pretreated with 100 μL 0.2M phosphoric acid+0.01% TWEEN 20 prior to the addition of […] of the stopped assay mixture. The plate was washed with 4×200 μL 0.2M phosphoric acid+0.01% TWEEN 20.
Ki(app) data were calculated from non-linear regression analysis of the initial rate data using the Prism software package (GraphPad Prism version 3.0cx for Macintosh, GraphPad Software, San Diego Calif., USA).

[2] = biological target: T1, Itk; test: ITK inhibition assay (UV), standard coupled enzyme assay; settings: 100 μM ATP, 100 nM Itk, 25° C.
Procedure: Assays were carried out in a mixture of 20 mM MOPS (pH 7.0), 10 mM MgCl2, 0.1% BSA, 1 mM DTT, 2.5 mM phosphoenolpyruvate, 300 μM NADH, 30 μg/ml pyruvate kinase and 10 μg/ml lactate dehydrogenase. […]
An assay stock buffer solution was prepared containing all of the reagents listed above, with the exception of ATP and the test compound of interest. […] The plate was preincubated for 10 minutes at 25° C. and the reaction initiated by addition of 5 μl of ATP. Initial reaction rates were determined with a Molecular Devices SpectraMax Plus plate reader over a 10 minute time course. IC50 and Ki data were calculated from non-linear regression analysis using the Prism software package (GraphPad Prism version 3.0cx for Macintosh, GraphPad Software, San Diego Calif., USA).

[3] = biological target: T2, Rlk (Homo sapiens, UniProt P42681); test: RLK inhibition assay, standard coupled enzyme assay; settings: 100 μM ATP, 40 nM Rlk, 30° C.
T2 sequence (P42681 1-527): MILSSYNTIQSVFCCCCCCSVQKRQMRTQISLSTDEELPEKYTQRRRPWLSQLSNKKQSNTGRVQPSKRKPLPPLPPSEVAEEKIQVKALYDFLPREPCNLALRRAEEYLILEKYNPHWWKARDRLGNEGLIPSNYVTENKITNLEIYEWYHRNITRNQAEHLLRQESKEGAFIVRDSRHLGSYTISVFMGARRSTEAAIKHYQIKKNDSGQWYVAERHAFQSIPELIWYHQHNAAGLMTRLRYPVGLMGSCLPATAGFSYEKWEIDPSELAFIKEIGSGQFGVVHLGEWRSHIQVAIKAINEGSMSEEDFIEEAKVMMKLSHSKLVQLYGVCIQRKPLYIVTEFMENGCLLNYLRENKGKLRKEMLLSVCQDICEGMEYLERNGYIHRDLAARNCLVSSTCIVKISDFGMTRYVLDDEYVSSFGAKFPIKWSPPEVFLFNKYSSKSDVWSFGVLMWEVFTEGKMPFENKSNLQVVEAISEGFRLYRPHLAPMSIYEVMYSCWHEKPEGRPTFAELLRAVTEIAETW
Procedure: Compounds were screened for their ability to inhibit Rlk using a standard coupled enzyme assay (Fox et al., Protein Sci., (1998) 7, 2249). Assays were carried out in a mixture of 20 mM MOPS (pH 7.0), 10 mM MgCl2, 0.1% BSA and 1 mM DTT. Final substrate concentrations in the assay were 100 μM ATP (Sigma Chemicals) and 10 μM peptide (Poly Glu:Tyr 4:1). Assays were carried out at 30° C. and in the presence of 40 nM Rlk. Final concentrations of the components of the coupled enzyme system were 2.5 mM phosphoenolpyruvate, 300 μM NADH, 30 μg/ml pyruvate kinase and 10 μg/ml lactate dehydrogenase.
An assay stock buffer solution was prepared containing all of the reagents listed above, with the exception of ATP and the test compound of interest. 60 μl of the stock solution was placed in a 96 well plate followed by addition of […] of DMSO stock containing serial dilutions of the test compound (typically starting from a final concentration of 7.5 μM). The plate was preincubated for 10 minutes at 30° C. and the reaction initiated by addition of 5 μl of ATP. Initial reaction rates were determined with a Molecular Devices SpectraMax Plus plate reader over a 10 minute time course. IC50 and Ki data were calculated from non-linear regression analysis using the Prism software package (GraphPad Prism version 3.0cx for Macintosh, GraphPad Software, San Diego Calif., USA).

Row | Ki [1] [nM] | Ki [2] [nM] | Ki [3] [nM] | Compound
1 | 100 to 1000 | 100 to 1000 | > 1000 | O=C(Nc1cc(-c2ccncc2)c[nH]c1=O)c1ccc(CCl)cc1 [Compound I-5]
2 | 100 to 1000 | 100 to 1000 | > 1000 | CC(C)(C)c1ccc(C(=O)Nc2cc(-c3ccncc3)c[nH]c2=O)cc1 [Compound I-11, 4-tert-Butyl-N-(6-oxo-1,6-dihydro-[3,4]bipyridinyl-5-yl)-benzamide]
3 | 100 to 1000 | 100 to 1000 | – | O=C(Nc1cc(-c2ccncc2)c[nH]c1=O)c1ccc(N2CCCC2)cc1 [Compound I-69]
4 | – | < 100 | – | CN1CCN(c2ccc(C(=O)Nc3cc(-c4ccncc4)c[nH]c3=O)cc2)CC1 [Compound I-70]
5 | – | < 100 | – | O=C(Nc1cc(-c2ccncc2)c[nH]c1=O)c1ccc(N2CCCCCC2)cc1 [Compound I-76]
6 | – | < 100 | – | O=C(Nc1cc(-c2ccncc2)c[nH]c1=O)c1ccc(N2CCCNCC2)cc1 [Compound I-78]
7 | – | < 100 | – | CN(C)CCCNc1ccc(C(=O)Nc2cc(-c3ccncc3)c[nH]c2=O)cc1 [Compound I-79]
8 | – | < 100 | – | NCCCNc1ccc(C(=O)Nc2cc(-c3ccncc3)c[nH]c2=O)cc1 [Compound I-80]
9 | 100 to 1000 | 100 to 1000 | – | O=C(Nc1cc(-c2ccncc2)c[nH]c1=O)c1ccc(CN2CCOCC2)cc1 [Compound I-82]
10 | 100 to 1000 | 100 to 1000 | – | O=C(Nc1cc(-c2ccncc2)c[nH]c1=O)c1ccc(CN2CCNCC2)cc1 [Compound I-83]
11 | 100 to 1000 | 100 to 1000 | – | CNCCN(C)Cc1ccc(C(=O)Nc2cc(-c3ccncc3)c[nH]c2=O)cc1 [Compound I-84]
12 | 100 to 1000 | 100 to 1000 | – | CSc1nccc(-c2c[nH]c(=O)c(NC(=O)c3ccc(C(C)(C)C)cc3)c2)n1 [II-4, 4-tert-Butyl-N-[5-(2-methylsulfanyl-pyrimidin-4-yl)-2-oxo-1,2-dihydro-pyridin-3-yl]-benzamide]
13 | 100 to 1000 | 100 to 1000 | > 1000 | CNc1cccc(-c2c[nH]c(=O)c(NC(=O)c3ccc(C(C)(C)C)cc3)c2)n1 [II-7]
14 | 100 to 1000 | – | > 1000 | CNCCNc1cc(-c2c[nH]c(=O)c(NC(=O)c3ccc(C(C)(C)C)cc3)c2)ncn1 [II-38]
15 | < 100 | – | < 1000 | CNc1nccc(-c2c[nH]c(=O)c(NC(=O)c3ccc(N4CCCCC4)cc3)c2)n1 [II-40, N-(1,2-dihydro-5-(2-(methylamino)pyrimidin-4-yl)-2-oxopyridin-3-yl)-4-(piperidin-1-yl)benzamide]
16 | 100 to 1000 | 100 to 1000 | > 1000 | CNc1cc(-c2c[nH]c(=O)c(NC(=O)c3ccc(C(C)(C)C)cc3)c2)nc(SC)n1 [II-41]
17 | < 100 | – | > 1000 | CNCCN(C)c1nccc(-c2c[nH]c(=O)c(NC(=O)c3ccc(N4CCCCC4)cc3)c2)n1 [II-65]
18 | 100 to 1000 | – | > 1000 | CNCCNc1cccc(-c2c[nH]c(=O)c(NC(=O)c3ccc(N4CCCCC4)cc3)c2)c1 [II-75]

Row | Ki [1] [nM] | Ki [2] [nM] | Ki [3] [nM] | Compound
19 | < 100 | – | < 1000 | CNc1nccc(-c2c[nH]c(=O)c(NC(=O)c3ccc(N4CCN(CCCOC)CC4)cc3)c2)n1 [II-79]
20 | < 100 | – | < 1000 | CNc1nccc(-c2c[nH]c(=O)c(NC(=O)c3ccc(N4CCN(C(C)=O)CC4)cc3)c2)n1 [II-81]
21 | 100 to 1000 | – | > 1000 | CC(C)(C)c1ccc(C(=O)Nc2cc(C3=CC(=O)CCC3)c[nH]c2=O)cc1 [II-83]
22 | 100 to 1000 | – | > 1000 | O=C1C=C(c2c[nH]c(=O)c(NC(=O)c3ccc(N4CCCCC4)cc3)c2)CCC1 [II-85]
23 | 100 to 1000 | – | > 1000 | O=C1C=C(c2c[nH]c(=O)c(NC(=O)c3ccc(N4CCCCC4)cc3)c2)CC1 [II-87]
24 | < 100 | – | > 1000 | CNc1cncc(-c2c[nH]c(=O)c(NC(=O)c3ccc(OCCC4CCNCC4)cc3)c2)n1 [II-143]
25 | < 100 | – | > 1000 | CNc1cncc(-c2c[nH]c(=O)c(NC(=O)c3ccc(N4CCN(CCO)CC4)cc3)c2)n1 [II-148]
26 | < 100 | – | > 1000 | CNc1cc(C#N)cc(-c2c[nH]c(=O)c(NC(=O)c3ccc(N4CCNCC4)cc3)c2)n1 [II-160]
27 | < 100 | – | > 1000 | CNc1cncc(-c2c[nH]c(=O)c(NC(=O)c3ccc(NC4CCNCC4)cc3)c2)n1 [II-163]
28 | < 100 | – | > 1000 | CNc1cncc(-c2c[nH]c(=O)c(NC(=O)c3ccc(N(C)CCN(C)C)cc3)c2)n1 [II-164]
29 | < 100 | – | > 1000 | CNc1cncc(-c2c[nH]c(=O)c(NC(=O)c3ccc(N4CC[C@@H](N(C)C)C4)cc3)c2)n1 [II-166]
30 | < 100 | – | > 1000 | CNc1cncc(-c2c[nH]c(=O)c(NC(=O)c3ccc(NCCCn4ccnc4)cc3)c2)n1 [II-168]
31 | < 100 | – | > 1000 | CNc1cc(F)cc(-c2c[nH]c(=O)c(NC(=O)c3ccc(N4CCC[C@H]4CN4CCCC4)cc3)c2)n1 [II-171]
32 | < 100 | – | > 1000 | CNc1cncc(-c2c[nH]c(=O)c(NC(=O)c3ccc(N4CCC[C@H]4CN4CCCC4)cc3)c2)c1 [II-178]
33 | < 100 | – | > 1000 | CNc1cc(C#N)cc(-c2c[nH]c(=O)c(NC(=O)c3ccc(N4CCC[C@H]4CN4CCCC4)cc3)c2)c1 [II-179]
34 | 100 to 1000 | – | > 1000 | CC(C)c1ccc(NC(=O)c2cc(-c3ccncc3)c[nH]c2=O)cc1 [III-4]
35 | 100 to 1000 | – | > 1000 | CC(C)(C)c1ccc(NC(=O)c2cc(-c3ccncc3)c[nH]c2=O)cc1 [III-5]
